Measured values: patent publication US20260337182A1, “COMPOUNDS AND COMPOSITIONS USEFUL AS INHIBITORS OF IAPs” (Tract Pharmaceuticals, Inc., priority 2022, published 2026)

What was measured:
[1] = system: Barrett's high grade dysplasia stem cells; experiment: percent survival of Barrett's high grade dysplasia stem cells; type: cell-based, human; conditions: FIG. 5A, 5B
Excerpt: FIG. 5 depicts treatment of Barrett's high grade dysplasia and diffuse gastric cancer with compound I-1. FIG. 5A depicts the % survival of Barrett's high grade dysplasia stem cells at higher concentration of compound I-1. FIG. 5B depicts the % survival of Barrett's high grade dysplasia stem cells at lower concentration of compound I-1. FIG. 5C depicts the % survival of diffuse gastric cancer stem cells at higher concentration of compound I-1. FIG. 5D depicts the % survival of diffuse gastric cancer stem cells at lower concentration of compound I-1.
(§1) FIG. 8 depicts treatment of Barrett's low grade dysplasia and high grade dysplasia with compounds I-1; I-2; I-6; and I-3. […]
(§2) The present example describes methods used for testing the efficacy of compounds described herein. […] Single cell-derived clones are generated by single cell FACS sorting to 384 well plates and wells with individual colonies are expanded, analyzed by molecular genetics, and grown as discrete clones.
(§3) Approximately 400,000 cells from discrete clones relevant to particular disease states (cancer, chronic inflammatory disease) are plated into 384 plates previously seeded with irradiated feeder cells, allowed to grow for 5 days, and then exposed to the test compounds in a serial dilution format. […] Human cell numbers are quantified via high-throughput imaging technology (CellInsight CX7 LED, Thermo), and data analyzed by Excel.

[2] = system: lung adenocarcinoma stem cells; experiment: percent survival of lung adenocarcinoma stem cells; type: cell-based, human; conditions: FIG. 3A, 3B
Protocol: FIG. 3 depicts treatment of lung adenocarcinoma stem cells with compound I-1. FIG. 3A depicts the % survival of lung adenocarcinoma stem cells at higher concentration of compound I-1. FIG. 3B depicts the % survival of lung adenocarcinoma stem cells at lower concentration of compound I-1.
Specifically, lung adenocarcinoma stem cells from an additional individual were tested and treated at higher (nM) or low (pM) concentrations of I-1 (FIG. 3A and FIG. 3B).
as §2, with “herein. The selective growth of stem cells of cancers, of their precursor lesions, and of normal and chronically diseased epithelial tissues is described in the references below.” for “herein.”
as §3

[3] = system: esophageal adenocarcinoma stem cells; experiment: percent survival of esophageal adenocarcinoma stem cells; type: cell-based, human; conditions: FIG. 2; versus other IAP inhibitors of Table 1
Excerpt: FIG. 2 depicts treatment of esophageal adenocarcinoma stem cells with compounds described herein. The concentration of the compound used and percent survival of the cells is provided.
FIG. 6 depicts treatment of Barrett's low grade dysplasia and esophageal adenocarcinoma with compound I-1. FIG. 6A depicts the % survival of Barrett's low grade dysplasia stem cells at higher concentration of compound I-1. FIG. 6B depicts the % survival of Barrett's low grade dysplasia stem cells at lower concentration of compound I-1. FIG. 6C depicts the % survival of esophageal adenocarcinoma stem cells at higher concentration of compound I-1. […]
as §2, §3

[4] = system: Barrett's low grade dysplasia stem cells; experiment: percent survival of Barrett's low grade dysplasia stem cells; type: cell-based, human; conditions: FIG. 6A, 6B
Excerpt: FIG. 6 depicts treatment of Barrett's low grade dysplasia and esophageal adenocarcinoma with compound I-1. FIG. 6A depicts the % survival of Barrett's low grade dysplasia stem cells at higher concentration of compound I-1. FIG. 6B depicts the % survival of Barrett's low grade dysplasia stem cells at lower concentration of compound I-1. FIG. 6C depicts the % survival of esophageal adenocarcinoma stem cells at higher concentration of compound I-1. FIG. 6D depicts the % survival of esophageal adenocarcinoma cells at lower concentration of compound I-1.
as §1, §2, §3

[5] = system: advanced Barrett's esophagus stem cells; experiment: percent survival of advanced Barrett's esophagus stem cells; type: cell-based, human
Excerpt: FIG. 4 depicts treatment of advanced Barrett's esophagus stem cells with compound I-1 in cells isolated from two different patients. FIG. 4A depicts the % survival of Barrett's esophagus stem cells from a first patient at higher concentration of compound I-1. FIG. 4B depicts the % survival of Barrett's esophagus cells from a first patient at lower concentration of compound I-1. FIG. 4C depicts the % survival of Barrett's esophagus cells from a second patient at higher concentration of compound I-1. FIG. 4D depicts the % survival of Barrett's esophagus stem cells from a second patient at lower concentration of compound I-1.
FIG. 7 depicts treatment of various diseases with compounds I-2 and I-5. FIG. 7A depicts % survival of diffused gastric adenocarcinoma with ascites cells with varying concentrations of compounds I-2 and I-5. FIG. 7B depicts % survival of advanced Barret's cells with varying concentrations of compounds I-2 and I-5. FIG. 7C depicts % survival of high-grade serous ovarian cancer cells with varying concentrations of compounds I-2 and I-5. […]
as §2, with “clones. […]” for “clones.”

[6] = system: Barrett's esophagus cells; experiment: percent survival of Barrett's esophagus cells; type: cell-based, human; conditions: FIG. 1; for sensitivity of Barrett's esophagus cells compared to the other compounds of Table 1: versus other IAP inhibitors of Table 1
Protocol: FIG. 1 depicts treatment of Barrett's esophagus cells with compounds described herein. The concentration of the compound used and percent survival of the cells is provided.
Cells isolated from individuals diagnosed with or suffering from Barrett's esophagus were treated with the indicated compounds.
(§4) The present example describes methods used for testing the efficacy of compounds described herein. The selective growth of stem cells of cancers, of their precursor lesions, and of normal and chronically diseased epithelial tissues is described in the references below. In brief, biopsied tissues are reduced to single cell suspensions and plated onto lawns of irradiated 3T3-J2 feeder cells in specialized StemEcho media and libraries of colonies are evident in 7-10 days. Single cell-derived clones are generated by single cell FACS sorting to 384 well plates and wells with individual colonies are expanded, analyzed by molecular genetics, and grown as discrete clones.
(§5) Approximately 400,000 cells from discrete clones relevant to particular disease states (cancer, chronic inflammatory disease) are plated into 384 plates previously seeded with irradiated feeder cells, allowed to grow for 5 days, and then exposed to the test compounds in a serial dilution format. After 2-5 days, the cells are fixed using paraformaldehyde and the human cells are labelled with human-specific antibodies followed by fluorochrome-labelled secondary antibodies. Human cell numbers are quantified via high-throughput imaging technology (CellInsight CX7 LED, Thermo), and data analyzed by Excel.

[7] = system: gastric cancer stem cells; experiment: percent survival of (diffuse) gastric cancer stem cells; type: cell-based, human; conditions: two individuals with diffuse gastric cancer; FIG. 7A, 7D
Excerpt: FIG. 7 depicts treatment of various diseases with compounds I-2 and I-5. FIG. 7A depicts % survival of diffused gastric adenocarcinoma with ascites cells with varying concentrations of compounds I-2 and I-5. FIG. 7B depicts % survival of advanced Barret's cells with varying concentrations of compounds I-2 and I-5. FIG. 7C depicts % survival of high-grade serous ovarian cancer cells with varying concentrations of compounds I-2 and I-5. FIG. 7D depicts % survival of gastric cancer with varying concentrations of compounds I-2 and I-5. FIG. 7E depicts % survival taxol resistant ovarian cancer stem cells with varying concentrations of compounds I-2 and I-5. […]
as §2, §3

[8] = system: pancreatic cancer stem cells; experiment: percent survival of pancreatic cancer stem cells; type: cell-based, human; conditions: varying concentrations; FIG. 9
Excerpt: FIG. 9 depicts treatment of pancreatic cancer with compounds I-9, I-10; I-3; I-11. FIG. 9 depicts the % survival of pancreatic cancer stem cells at varying concentrations of I-9; I-10; I-3; I-11.
as §4, §5

cIAP1 = conditions: inhibits cIAP1; cited from earlier work

With CN[C@@H](C)C(=O)N[C@H](C(=O)N1CCC[C@H]1C(=O)N[C@H]1c2ccccc2C[C@H]1OCCOCCNc1c(NCCOCCO[C@@H]2Cc3ccccc3[C@@H]2NC(=O)[C@@H]2CCCN2C(=O)[C@@H](NC(=O)[C@H](C)NC)C2CCCCC2)c(=O)c1=O)C1CCCCC1 [I-1] the “sensitivity of Barrett's high grade dysplasia stem cells” value [1] was “sensitive”, the “sensitivity of lung adenocarcinoma stem cells” value ([2]; higher (nM) or low (pM) concentrations) was “demonstrate the sensitivity” and the “lethality compared with another highly potent cytotoxic treatment” value ([2]; higher and lower concentration) was “comparable lethality to another highly potent cytotoxic treatment”. For the same compound, the “sensitivity of esophageal adenocarcinoma stem cells compared to the other compounds of Table 1” value [3] was “significantly more sensitive”, the “sensitivity of Barrett's low grade dysplasia stem cells” value [4] was “sensitive” and the “sensitivity of advanced Barrett's esophagus stem cells” value ([5]; two individuals, higher (nM) or low (pM) concentrations, FIG. 4A-4D) was “demonstrates the sensitivity”. The “sensitivity of Barrett's esophagus cells” value [6] was “particularly sensitive” and the “sensitivity of Barrett's esophagus cells compared to the other compounds of Table 1” value [6] was “significantly more sensitive”.
With CN[C@@H](C)C(=O)N[C@H](C(=O)N1CCC[C@H]1C(=O)N[C@H]1c2ccccc2C[C@H]1OCCNc1c(NCCO[C@@H]2Cc3ccccc3[C@@H]2NC(=O)[C@@H]2CCCN2C(=O)[C@@H](NC(=O)[C@H](C)NC)C2CCCCC2)c(=O)c1=O)C1CCCCC1 [I-2] the “sensitivity of esophageal adenocarcinoma stem cells compared to the other compounds of Table 1” value [3] was “significantly more sensitive”, the “sensitivity of gastric cancer stem cells” value [7] was “sensitive” and the “sensitivity of advanced Barrett's esophagus stem cells” value ([5]; additional individual, varying concentrations, FIG. 7B) was “notably sensitive”. The “sensitivity of Barrett's esophagus cells” value [6] was “particularly sensitive” and the “sensitivity of Barrett's esophagus cells compared to the other compounds of Table 1” value [6] was “significantly more sensitive”.
For CN[C@@H](C)C(=O)N[C@H](C(=O)N1CCC[C@H]1C(=O)N[C@H]1c2ccccc2C[C@H]1OCCCCCNc1c(NCCCCCO[C@@H]2Cc3ccccc3[C@@H]2NC(=O)[C@@H]2CCCN2C(=O)[C@@H](NC(=O)[C@H](C)NC)C2CCCCC2)c(=O)c1=O)C1CCCCC1 [I-3], the “sensitivity of pancreatic cancer stem cells” value [8] was “sensitive”.
With CN[C@@H](C)C(=O)N[C@H](C(=O)N1CCC[C@H]1C(=O)N[C@H]1c2ccccc2C[C@H]1OCCCNc1c(NCCCO[C@@H]2Cc3ccccc3[C@@H]2NC(=O)[C@@H]2CCCN2C(=O)[C@@H](NC(=O)[C@H](C)NC)C2CCCCC2)c(=O)c1=O)C1CCCCC1 [I-9] the “sensitivity of pancreatic cancer stem cells” value [8] was “sensitive”.
In the case of CN[C@@H](C)C(=O)N[C@H](C(=O)N1CCC[C@H]1C(=O)N[C@H]1c2ccccc2C[C@H]1OCCCCNc1c(NCCCCO[C@@H]2Cc3ccccc3[C@@H]2NC(=O)[C@@H]2CCCN2C(=O)[C@@H](NC(=O)[C@H](C)NC)C2CCCCC2)c(=O)c1=O)C1CCCCC1 [I-10], the “sensitivity of pancreatic cancer stem cells” value [8] is reported as “sensitive”.
For CN[C@@H](C)C(=O)N[C@H](C(=O)N1CCC[C@H]1C(=O)N[C@H]1c2ccccc2C[C@H]1OCCCCCCNc1c(NCCCCCCO[C@@H]2Cc3ccccc3[C@@H]2NC(=O)[C@@H]2CCCN2C(=O)[C@@H](NC(=O)[C@H](C)NC)C2CCCCC2)c(=O)c1=O)C1CCCCC1 [I-11], the “sensitivity of pancreatic cancer stem cells” value [8] was “sensitive”.
For CN[C@@H](C)C(=O)N[C@H](C(=O)N1CCC[C@H]1c1nc(C(=O)c2ccc(F)cc2)cs1)C1CCCCC1 [LCL 161], the IC50 (cIAP1) is listed as 0.4 nM.
